# In patent US11344601B2, “Tumor microenvironment-related target TAK1 and application thereof in inhibition of tumor” (Shanghai Institutes for Biological Sciences, Chinese …, priority 2017, dated 2022):
# Key:
# [1] = system: BCa cell line MDA-MB-231/stromal cell line HBF1203 xenograft tumors; test: BCa xenograft (MDA-MB-231/HBF1203) preclinical chemotherapy, terminal tumor volume; format: in vivo, mice; conditions: chemotherapy alone (group 6 vs group 5), MDA-MB-231/HBF1203 tumors
# Procedure: (§1) FIG. 84. Statistical comparative analysis of terminal tumor volumes in BCa tumors transplanted mice (BCa cell line MDA-MB-231/stromal cell line […]1 for administration alone or combined with bleomycin for chemotherapy). […] All experimental mouse experiments were carried out in strict accordance with the relevant regulations of the Institutional animal care and use committee (IACUC) of the shanghai Institute of Life Sciences of the Chinese Academy of Sciences. ICR-SCID mice at an age of about 6 weeks (about 25 g in body weight) were used in this patent-related animal experiment. Stromal cells PSC27 and epithelial cells were mixed at a ratio of 1:4, with each implant containing 1.25×10^6 cells for tissue recombination. The transplant tumor was implanted into mice subcutaneously, and the animals were euthanized at the end of Week 8 after transplantation. The tumor volume was calculated according to the following formula: […] Similarly, lung and breast cancer xenograft tumors were formed by tissue recombination with A549 (non-small cell lung cancer cell line) and W138 (lung fibroblast line), MDA-MB-231 (triple negative breast cancer cell line) and HBF1203 (breast fibroblast line), respectively. In the preclinical chemotherapy trial, mice subcutaneously transplanted with tumors were fed standard experimental diet. […]
# [2] = system: NSCLC cell line A549/stromal cell line W138 xenograft tumors; test: NSCLC xenograft (A549/W138) preclinical chemotherapy, terminal tumor volume; format: in vivo, mice; conditions: chemotherapy alone (group 6 vs group 5)
# Procedure: as §1, with “83.” for “84.”, “NSCLC” for “BCa”, “(NSCLC” for “(BCa”, “A549/stromal” for “MDA-MB-231/stromal”, “in combination” for “combined”, “bleomycin-based” for “bleomycin for”
# [3] = target: T1, ATM (Homo sapiens, UniProt Q13315); test: p-ATM antibody-mediated IP of bleomycin-treated PSC27 cells (ATM-TRAF6 interaction); format: cell-based; conditions: bleomycin-treated stromal cells
# T1 construct: endogenous in cells; host or cells: PSC27 human prostate stromal cells
# T1 sequence (Q13315 whole entry): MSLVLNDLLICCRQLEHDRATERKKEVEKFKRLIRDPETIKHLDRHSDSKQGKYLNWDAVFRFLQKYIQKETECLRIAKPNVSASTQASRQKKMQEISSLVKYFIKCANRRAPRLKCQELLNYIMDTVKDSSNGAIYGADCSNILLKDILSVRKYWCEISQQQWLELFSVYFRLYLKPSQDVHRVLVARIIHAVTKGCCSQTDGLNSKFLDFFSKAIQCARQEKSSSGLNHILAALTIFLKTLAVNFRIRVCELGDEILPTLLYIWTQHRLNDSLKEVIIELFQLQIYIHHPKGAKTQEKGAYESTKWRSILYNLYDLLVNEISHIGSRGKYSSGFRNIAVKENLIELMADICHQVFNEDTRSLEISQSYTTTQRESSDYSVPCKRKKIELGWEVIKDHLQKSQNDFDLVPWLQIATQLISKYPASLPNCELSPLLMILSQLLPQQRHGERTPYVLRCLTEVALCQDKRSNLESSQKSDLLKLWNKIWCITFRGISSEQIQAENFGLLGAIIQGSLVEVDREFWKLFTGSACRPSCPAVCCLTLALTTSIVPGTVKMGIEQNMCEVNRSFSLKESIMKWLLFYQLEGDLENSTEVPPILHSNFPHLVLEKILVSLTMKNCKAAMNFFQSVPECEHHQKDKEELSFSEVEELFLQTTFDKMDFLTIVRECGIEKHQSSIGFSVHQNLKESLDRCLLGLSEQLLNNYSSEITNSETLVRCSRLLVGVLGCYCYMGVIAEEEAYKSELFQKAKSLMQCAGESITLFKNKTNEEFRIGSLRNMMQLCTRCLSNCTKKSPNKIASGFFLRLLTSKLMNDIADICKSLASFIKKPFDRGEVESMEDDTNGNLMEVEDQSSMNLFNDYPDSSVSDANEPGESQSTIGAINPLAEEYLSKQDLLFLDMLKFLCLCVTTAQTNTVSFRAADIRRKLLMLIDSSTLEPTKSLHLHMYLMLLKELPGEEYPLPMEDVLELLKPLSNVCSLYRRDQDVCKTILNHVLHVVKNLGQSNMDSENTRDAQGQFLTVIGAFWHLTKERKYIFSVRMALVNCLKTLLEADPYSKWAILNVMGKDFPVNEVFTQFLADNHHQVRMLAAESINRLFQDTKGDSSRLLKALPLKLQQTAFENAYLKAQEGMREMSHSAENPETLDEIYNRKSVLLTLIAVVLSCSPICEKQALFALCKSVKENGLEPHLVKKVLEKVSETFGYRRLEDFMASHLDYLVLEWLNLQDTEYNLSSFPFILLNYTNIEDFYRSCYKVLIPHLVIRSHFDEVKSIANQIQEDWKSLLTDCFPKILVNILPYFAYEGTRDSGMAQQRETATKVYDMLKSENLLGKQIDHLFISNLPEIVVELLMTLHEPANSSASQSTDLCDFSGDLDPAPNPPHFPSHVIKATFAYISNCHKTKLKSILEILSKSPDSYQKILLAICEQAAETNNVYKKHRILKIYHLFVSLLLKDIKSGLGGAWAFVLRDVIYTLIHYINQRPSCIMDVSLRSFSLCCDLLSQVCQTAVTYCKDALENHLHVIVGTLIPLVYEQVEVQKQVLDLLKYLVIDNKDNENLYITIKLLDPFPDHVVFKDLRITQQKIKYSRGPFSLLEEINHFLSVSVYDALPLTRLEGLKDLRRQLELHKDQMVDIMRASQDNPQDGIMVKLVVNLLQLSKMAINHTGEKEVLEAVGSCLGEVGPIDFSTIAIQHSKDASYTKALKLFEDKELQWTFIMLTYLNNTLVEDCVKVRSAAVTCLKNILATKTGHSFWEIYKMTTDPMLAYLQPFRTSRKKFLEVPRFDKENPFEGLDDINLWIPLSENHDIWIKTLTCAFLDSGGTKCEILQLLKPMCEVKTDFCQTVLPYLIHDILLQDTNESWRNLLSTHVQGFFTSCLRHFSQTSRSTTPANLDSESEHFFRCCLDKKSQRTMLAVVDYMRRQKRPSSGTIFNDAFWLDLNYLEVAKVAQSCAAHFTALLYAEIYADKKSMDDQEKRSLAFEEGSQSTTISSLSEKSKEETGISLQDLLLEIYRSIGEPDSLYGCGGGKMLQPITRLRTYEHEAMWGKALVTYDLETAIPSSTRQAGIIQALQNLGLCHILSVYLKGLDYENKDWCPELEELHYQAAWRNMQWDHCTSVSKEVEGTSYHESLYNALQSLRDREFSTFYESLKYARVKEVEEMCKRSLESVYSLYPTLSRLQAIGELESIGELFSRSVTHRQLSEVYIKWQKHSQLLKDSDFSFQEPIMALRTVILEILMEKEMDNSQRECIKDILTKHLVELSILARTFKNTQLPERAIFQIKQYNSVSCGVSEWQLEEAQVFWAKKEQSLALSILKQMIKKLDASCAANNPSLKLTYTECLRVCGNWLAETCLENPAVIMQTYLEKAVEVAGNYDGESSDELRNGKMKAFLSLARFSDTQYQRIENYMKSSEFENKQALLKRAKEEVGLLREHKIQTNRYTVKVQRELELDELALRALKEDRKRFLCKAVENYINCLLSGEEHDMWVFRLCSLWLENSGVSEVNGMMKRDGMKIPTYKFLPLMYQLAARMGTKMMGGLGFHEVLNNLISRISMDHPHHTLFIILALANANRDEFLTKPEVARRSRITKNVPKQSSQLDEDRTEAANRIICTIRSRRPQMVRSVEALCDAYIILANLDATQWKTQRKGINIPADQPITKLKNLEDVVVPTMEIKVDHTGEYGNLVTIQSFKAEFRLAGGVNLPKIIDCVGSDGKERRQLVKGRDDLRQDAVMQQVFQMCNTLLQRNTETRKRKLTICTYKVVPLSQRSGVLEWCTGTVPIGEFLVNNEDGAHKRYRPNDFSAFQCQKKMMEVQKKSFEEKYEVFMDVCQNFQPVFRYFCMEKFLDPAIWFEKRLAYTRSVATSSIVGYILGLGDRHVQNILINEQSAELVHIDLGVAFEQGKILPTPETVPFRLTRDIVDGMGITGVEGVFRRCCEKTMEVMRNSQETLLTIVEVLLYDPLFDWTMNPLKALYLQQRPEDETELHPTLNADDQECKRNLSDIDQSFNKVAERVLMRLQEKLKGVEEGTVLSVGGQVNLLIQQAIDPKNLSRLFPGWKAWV
# Procedure: Phosphorylated ATM (p-ATM) antibody-mediated IP analysis. The expression levels of TRAF6, p-ATM and ATM in IP precipitates were detected by Western blot. TRAF6, a loading control. PSC27 was treated with bleomycin (50 ug/ml) and then with the ATM small molecule inhibitor KU55933 (KU, 10 μM).
Molecule,decrease in terminal tumor volume [1] [%],decrease in terminal tumor volume [2] [%],interaction between activated ATM and TRAF6 [3]
bleomycin,32,38,–
O=c1cc(-c2cccc3c2Sc2ccccc2S3)oc(N2CCOCC2)c1 [KU55933],–,–,abolished
